Assay results taken from US20010014357A1, “Citrus peel extract as inhibitor of ACYL coa-cholesterol-o-acyltransferase, inhibitor of macrophage-lipid complex accumulation on the arterial wall and preventive or treating agent for hepatic diseases” (priority 1997, published 2001).

Assays:
[1] = tested on: macrophage-lipid complex accumulated on the arterial endothelium; assay: Analysis for fatty streak (macrophage-lipid complex) in the main artery of cholesterol-fed rabbits; assay type: in vivo, New Zealand White rabbits; conditions: 1% cholesterol diet plus 0.1% flavonoid or 1 mg/kg Lovastatin; for area of macrophage-lipid complex accumulated on the arterial endothelium compared to the control group / M-L (macrophage-lipid) complex area: 6 weeks; for layer of macrophage-lipid complex observed on the arterial endothelium (FIGS. 1B-1D): control shows a thick layer; for M-L (macrophage-lipid) complex area: Oil Red O stained area as proportion of total arterial area, control group 35
Excerpt: RC4 diet comprises 7.6% moisture, 22.8% crude protein, 2.8% crude fat, 8.8% crude ash, 14.4% crude cellulose and 43.6% soluble nitrogen-free substances. The rabbits were bred for 6 weeks while being allowed free access to the diets and water. The rabbits bred in (Step 1) were sacrificed and their chest were incised. The main artery was cut out therefrom in a length of about 5 cm downward from the site 1 cm above the aortic valve and the fat surrounding the main artery was removed. The main artery was incised in the middle along the longitudinal axis and pinned to a dish. The moist artery was photographed and, then, staining of fatty streak was carried out in accordance with the method of […]., et al.(J. Lab. Clin. […] A part of the incised main artery was washed three times by 2 min. with anhydrous propylene glycol and stained for 30 min. with a saturated solution of Oil Red O (ORO, Sigma Co.) dissolved in propylene glycol. Thereafter, the artery was washed twice by 3 min. with 85% propylene glycol to remove remaining staining solution and, then washed with physical saline. The artery was photographed and the photograph was traced. The area of stained region (fatty streak region) was determined with an image analyzer (LEICA, Q-600, Germany) and its proportion(%) to the total arterial area was calculated. On the other hand, the other part of the main artery was stained in accordance with hematoxylin-eosin (H&E) and Masson's trichrome staining methods and observed under a microscope to confirm whether the macrophage-lipid complexes were accumulated in the intima, internus, elastic lamina and media.

[2] = tested on: hepatic cells (fatty liver); assay: Histopathological observation of the livers of cholesterol-fed rabbits; assay type: in vivo, New Zealand White rabbits; conditions: 1% cholesterol diet plus 0.1% flavonoid or 1 mg/kg Lovastatin, eight weeks, H&E stain
Experimental: The same procedure as in (Step 1) was repeated except that 40 three-month-old New Zealand White rabbits (Yeonam Horticulture and Animal Husbandry College, Korea) each weighing about 2.5 to 2.6 kg were used in place of the rats, and the rabbits were fed for eight weeks with four different diets, i.e., RC4 diet containing 1% cholesterol (Control group); 1% cholesterol plus 1 mg/kg Lovastatin® (Comparative group); 1% cholesterol plus 0.1% hesperidin; and 1% cholesterol plus 0.1% naringin, respectively.
Thereafter, the livers were separated from the rabbits and the histopathological observations were carried out as follows.
The rabbits were anesthetized with an intramuscular injection of ketamine (75 mg/kg) and subjected to an abdominal incision. […] The fixed liver was washed sufficiently with water, dehydrated stepwise with 70%, 80%, 90% and 100% ethanol and, then, embedded in paraffin. The embedded liver was sectioned in 4 μm thickness with a microtome and stained with hematoxylin and eosin. The stained liver specimen was made transparent with xylene, mounted with permount, and then observed under a microscope to confirm the presence of lesions.

[3] = Blood total cholesterol and triglyceride levels in cholesterol-fed rabbits; assay type: in vivo, New Zealand White rabbits; conditions: 1% cholesterol diet plus 0.1% flavonoid or 1 mg/kg Lovastatin, 6 weeks
Experimental: RC4 diet comprises 7.6% moisture, 22.8% crude protein, 2.8% crude fat, 8.8% crude ash, 14.4% crude cellulose and 43.6% soluble nitrogen-free substances. The rabbits were bred for 6 weeks while being allowed free access to the diets and water. Further, blood samples were taken from the rabbits and total cholesterol and triglyceride levels were determined in accordance with the same procedure in Example 5.

[4] = Serum GOT, GPT and γGTP levels in men given oral naringin; assay type: in vivo, human; conditions: person, oral 10 mg/kg daily, day 68
Experimental: Naringin was orally administered to a person at a daily dose of 10 mg/kg for 68 days and serum GOT, GPT and γGTP levels were determined just before the administration (day 0), and 45 and 68 days after the administration (day 45 and day 68), respectively. Consequently, serum GOT- levels at day 45 and day 68 decreased by 17%, respectively, in comparison to that of day 0. Serum GPT levels at day 45 and day 68 decreased by 15% and 19%, respectively, in comparison to that of day 0. Further, serum γGTP levels at day 45 and day 68 decreased by 25% and 51%, respectively, in comparison to that of day 0.
On the other hand, naringin was orally administered to a person, who had drunk alcoholic beverages habitually in an amount of 100 cc per day, at a daily dose of 6 mg/kg for 30 days and serum γGTP level was determined just before the administration (day 0) and 30 days after the administration (day 30). Consequently, initial serum γGTP level at day 0 was 129 IU/l, while that of day 30 decreased to 69 IU/l which is within the normal range.

[5] = Serum GOT and GPT levels in rats on a high-cholesterol diet; assay type: in vivo, Sprague-Dawley rats; conditions: 1% cholesterol diet plus 0.02% naringin or citrus peel extract (0.04% hesperidin equivalent), six weeks
Excerpt: 30 four-week-old Sprague-Dawley rats (Taihan laboratory animal center, Korea) each weighing about 90 to 110 g were evenly divided into three dietary groups by a randomized block design. The rats of the three groups were fed with three different high-cholesterol diets, i.e., AIN-76 laboratory animal diet (ICN Biochemicals, Cleveland, Ohio, U.S.A.) containing 1% cholesterol(Control group), 1% cholesterol plus 0.02% naringin, and 1% cholesterol plus citrus peel extract prepared in Example 2(1) in an amount equivalent to 0.04% hesperidin, respectively.
The effect of administering naringin and citrus peel extract to rats on the function of the liver was examined as follows.
Blood samples were taken from the rats of the three dietary groups and serum GOT (glutamate-oxaloacetate transaminase) and GPT (glutamate-pyruvate transaminase) levels were determined in accordance with the method of Reitman and Frankel (Reitman, S. and J. S. Frankel, Am. J. Clin. Pathol., 28, 56 (1956)). GOT and GPT are synthesized in the liver and heart, and released into blood stream upon the damage of these organs. Accordingly, GOT and GPT are representative markers of the liver-function and high serum GOT and GPT levels mean severe damage of the liver.

## CC[C@H](C)C(=O)O[C@H]1C[C@@H](C)C=C2C=C[C@H](C)[C@H](CC[C@@H]3C[C@@H](O)CC(=O)O3)[C@H]21 [Lovastatin, reference compound]
[1]
  area of macrophage-lipid complex accumulated on the arterial endothelium compared to the control group: decreased significantly
  layer of macrophage-lipid complex observed on the arterial endothelium (FIGS. 1B-1D): no or very thin layers
[2]
  microscopic features of the hepatic cells (FIGS. 2B-2D): irregularly arranged and enlarged and a large amount of fat is deposited therein

## COc1ccc([C@@H]2CC(=O)c3c(O)cc(O)cc3O2)cc1O [hesperetin]
[3]
  Total cholesterol: 1150 mg/dL
  Triglyceride: 41 mg/dL
[1]
  area of macrophage-lipid complex accumulated on the arterial endothelium compared to the control group: decreased significantly
  M-L (macrophage-lipid) complex area: 13%

## COc1ccc([C@@H]2CC(=O)c3c(O)cc(O[C@@H]4O[C@H](CO[C@@H]5O[C@@H](C)[C@H](O)[C@@H](O)[C@H]5O)[C@@H](O)[C@H](O)[C@H]4O)cc3O2)cc1O [hesperidin]
[3]
  Total cholesterol: 1130 mg/dL
  Triglyceride: 40 mg/dL
[1]
  area of macrophage-lipid complex accumulated on the arterial endothelium compared to the control group: decreased significantly
  M-L (macrophage-lipid) complex area: 13.5%
  layer of macrophage-lipid complex observed on the arterial endothelium (FIGS. 1B-1D): no or very thin layers
[2]
  microscopic features of the hepatic cells (FIGS. 2B-2D): normal and the deposition of fat is not observed

## O=C1C[C@@H](c2ccc(O)cc2)Oc2cc(O)cc(O)c21 [naringenin]
[1]
  area of macrophage-lipid complex accumulated on the arterial endothelium compared to the control group: decreased significantly

## C[C@@H]1O[C@@H](O[C@H]2[C@H](Oc3cc(O)c4c(c3)O[C@H](c3ccc(O)cc3)CC4=O)O[C@H](CO)[C@@H](O)[C@@H]2O)[C@H](O)[C@H](O)[C@H]1O [naringin]
[4]
  decrease of serum γGTP level in comparison to day 0: 51%
[5]
  serum GOT level, lower than that of the control group: about 30%
  serum GPT level, lower than that of the control group: ~10%
[1]
  area of macrophage-lipid complex accumulated on the arterial endothelium compared to the control group: decreased significantly
  layer of macrophage-lipid complex observed on the arterial endothelium (FIGS. 1B-1D): no or very thin layers
[2]
  microscopic features of the hepatic cells (FIGS. 2B-2D): normal and the deposition of fat is not observed
